According to patent US11958869B2, “Ruthenium arene Schiff-base complexes and uses thereof” (CITY UNIVERSITY OF HONG KONG, priority 2021, dated 2024):
Where two headings read alike, the source gives them in different places.

Assays:
MDA-MB-231 = assay: Anti-proliferative activity (MTT assay), MDA-MB-231; assay type: cell-based
Description: (§1) Cells were seeded in 96-well plates and maintained for 14-16 hours, then were treated with dimethylsulfoxide (DMSO) or test compound at various concentrations (i.e., 0.312, 1.25, 5, 20 μM) for 72 hrs. The cells were then washed with phosphate buffer saline (PBS) twice, added a medium containing 3-(4,5-dimethylthiazol-2-yl)-2,5-diphenyltetrazolium bromide (MTT) at a final concentration of 0.5 mg/mL, and incubated for 4 hr at 37° C. in a humidified incubator containing 5% CO2 in air. Cells having functional succinate dehydrogenase of mitochondria would convert MTT to formazan. Then, the medium was replaced with 100 μL of DMSO for 30 min at room temperature, and the 96-well plate was read by an ELISA reader at 550 nm to get the absorbance density values. The IC50 values of death cell lines were calculated accordingly.
(§2) The Ru^TEN complexes of Example 1 were evaluated for their anti-proliferative properties in two breast cancer cell lines, namely, MCF-7 and MDA-MB-231 cells via MTT assay. […] MCF-7 is a chemotherapy-responsive breast cancer cell line of luminal subtype with high expression of estrogen receptor (ER), whereas MDA-MB-231 is a triple negative breast cancer (TNBC) or basal-like breast cancer cell ine. TNBC is defined as highly invasive cancer that lacks expression of ER, progesterone receptor (PR) and Her-2; it has one of the worst outcomes among all subtypes of breast cancers. The aggressive nature of TNBC may be related to the presence of breast cancer stem cells within the tumor; therefore, MDA-MB-231 cells are often used as a model of mammary cancer stem cells.
(§3) The cytotoxicity of Ru^TEN complexes of Example 1 was compared to that of cisplatin or oxaliplatin, which were known to induce their anticancer effects by the mode of action different from ER stress. Three CSC-selective organic compounds, salinomycin, etoposide and abamectin, were also used for comparison. Briefly, MCF-7 and MDA-MB-231 cells were respectively treated with increasing concentrations of compounds of interest for 24 or 72 hrs and then the cell viability was measured.

[1] = system: MDA-MB-231 secondary mammospheres; assay: Secondary mammosphere formation (self-renewal), MDA-MB-231; assay type: cell-based; settings: for Number of MDA-MB-231 secondary mammospheres / Size (μm) of MDA-MB-231 secondary mammospheres: from drug-treated primary mammospheres, grown in drug-free conditions for 7 days; for propensity to form secondary mammospheres: single cells from drug-treated primary mammospheres, 7 days drug-free, FIG. 2
Description: To this purpose, drug-treated primary MDA-MB-231 mammospheres were dissociated into single cell suspensions and incubated for 7 days in ultralow attachment drug-free conditions.

MDA-MB-231 mammospheres [2] = assay: Cytotoxicity in MDA-MB-231 mammospheres (Table 2); assay type: cell-based; settings: read-out: IC50 (μM) MDA-MB-231 mammospheres 72 h
[3] = system: human hepatocellular carcinoma LM3 xenografts; assay: Hepatocellular carcinoma LM3 xenograft model; assay type: in vivo, athymic NCr nude mice; settings: all doses tested, FIG. 8
Description: (§4) Hepatocellular carcinoma LM3 cells (5×10^4 cells/20 μL) or breast cancer MDM-BA-231 cells (5×10^4 cells/20 μL) were implanted subcutaneously in the flanks of athymic NCr nude mice. A total of 40 male NCr nude mice (8 weeks or older weighing 20-24 g or more) were used for the tumor xenografts. The tested compounds (e.g., Ru^TEN 1, Ru^TEN 3, or salinomycin) were intraperitoneally administered at the dose of […] twice per week. Tumor volume was determined by image analysis. The mice in the control group received corresponding injection of 0.1% DMSO. For tumor-bearing NCr nude mice during the 4-weeks (or 28 days) experiment, the % body weight changes refer to: (the total weight on reading day/the total weight on day treatment started)×100. All mice were sacrificed at the end of the experiment (i.e., by the end of 28 days), and tissues including lung, liver, tumor, heart, brain, kidneys, spleen and colon were harvested, and checked for any sign of cancer metastasis.

MCF-7 = assay: cells; assay type: cell-based; settings: read-out: IC50 (μM) MCF-7 72 h
Description: as §1, §2, §3

MDA-MB-231 mammospheres [4] = assay: Invasion / dispersion of spheroids into 3D collagen; assay type: cell-based; settings: cells incubated with compound 72 hr, FIG. 4
From the text: CSCs are associated with highly invasive phenotype and it is believed that this subset of cancer cells gives rise to metastases. In order to monitor the dissemination of MCF-7 and MDA-MB-231 breast cancer spheroids, the spheroids were embedded into three-dimensional (3D) collagen scaffold using Aim Biotech 3D cell culture chips. Collagen with spheroids was introduced into the central region of the microfluidic system where it polymerized via thermal cross-linking. Cell culture media was introduced into media channels forcing spheroids to move through collagen towards the media.
Thus, whether Ru^TEN complexes and salinomycin affected the invasive properties of MDA-MB-231 spheroids was then investigated. To this purpose, MDA-MB-231 monolayer cells were incubated with compounds of interest (e.g., Ru^TEN complexes of Examplel or salinomycin) for 72 hr, then the delamination was allowed to proceed for over 28 hr. Results are depicted in FIG. 4.

MDA-MB-231 mammospheres [5] = assay: Mammosphere formation assay, MDA-MB-231 primary; assay type: cell-based; settings: for Number of MDA-MB-231 mammospheres / Size (μm) of MDA-MB-231 mammospheres: primary mammospheres grown 96 hr, incubated with compound 72 hrs, >50 μm analyzed; for decrease in number of MDA-MB-231 mammospheres / decrease in size of MDA-MB-231 mammospheres: versus control
Description: (§5) Since the breast cancer stem cells formed a mass of colonies in the form of floating spheres without attaching to a surface of a plate, the size and number of the masses were observed by a mammosphere formation assay to determine a cancer-stem-cell-specific effect.
(§6) Single-cell suspension was cultured at a density of 1,000 to 15,000 cells/well using a MammoCult™ Human Medium kit (Stemcell Technologies Inc Vancouver, CA), and the spherical cells were counted and observed under a microscope.
(§7) The mammosphere assay is based on the concept that when cells proliferate in three-dimensional spheroid structures, only cancer cells with stem-like characteristics are able to evade anoikis.

MCF-7 mammospheres = assay: Mammosphere formation assay, MCF-7; assay type: cell-based; settings: for Number of MCF-7 mammospheres / Size (μm) of MCF-7 mammospheres: primary mammospheres grown 96 hr, incubated with compound 72 hrs, >50 μm analyzed
Description: as §5, §6, §7

MDA-MB-231 mammospheres [6] = assay: Viability of MDA-MB-231 mammospheres, Alamar Blue assay (Table 1); assay type: cell-based; settings: read-out: IC50 (μM), growth of MDA-MB-231 mammospheres
[7] = system: ALDHbright subpopulation of MDA-MB-231 cells; assay: ALDEFLUOR assay (ALDH activity); assay type: cell-based; settings: versus control, FIG. 3
Description: The cells were stained with […] bodipy-aminoacetaldehyde (BAAA), and then cultured at 37° C. for 45 minutes. An ALDH1 inhibitor, diethyl aminobenzaldehyde (DEAB), was used as the negative control. The stained cells were assayed using BD FACS Aria III. In this case, the positive fluorescent ALDH1-expressed cells (ALDH+) were detected in a green fluorescent channel (520 to 540 nm).
While CD44+/CD24−/low phenotype has often been associated with breast CSC/progenitor cell features, yet there is no correlation between the presence of CD44+/CD24−/low cells and clinical outcome and formation of distant metastases. It is the presence of aldehyde dehydrogenase (ALDH) bright cells which separates highly tumorigenic CD44+/CD24−/low/ALDHbright population from non-tumorigenic cells. Unlike CD44+/CD24−/low, ALDH is a predictor of metastasis and is associated with a poor clinical outcome. The main role of ALDH enzymes is the detoxification of aldehydes generated in various metabolic processes into carboxylic acids. However, several ALDH isoforms are involved in retinoic acid signaling and this particular function was linked to the “stemness” of CSCs. The functional activity of ALDHs can be accurately determined by ascertaining the cellular conversion of […] (BAAA) into a fluorescent molecule BODIPY-aminoacetate (BAA). ATP-binding cassette (ABC)-transporter inhibitors in the assay buffer prevent the efflux of BAA from the cells, resulting in the accumulation of BAA in cytoplasm.

[8] = system: human MD-MBA-231 breast cancer xenografts; assay: Breast cancer MDA-MB-231 xenograft model; assay type: in vivo, athymic NCr nude mice; settings: doses tested, FIG. 11
Description: as §4
Results are depicted in FIGS. 9 to 11.

[9] = Ru biodistribution in tumor-bearing mice; assay type: in vivo; settings: FIG. 6
From the text: The Ru biodistribution in tumor-bearing mice treated with Ru^TEN3 was also investigated.

[10] = Acute toxicity, tolerated dose in Balb/c mice; assay type: in vivo
Description: In this example, Ru^TEN3 was subjected to in vivo studies with Balb/c mice. Various treatment regimens were explored to define the optimally tolerated dose of Ru^TEN3 in vivo. […] The body weight changes were recorded.

[11] = 24 h, MTT, read-out: IC50 (μM) MDA-MB-231 24 h
[12] = 72 h, MTT, read-out: IC50 (μM) MDA-MB-231 72 h

| Compound | IC50 (MDA-MB-231; [11]) [µM] | IC50 (MDA-MB-231; [12]) [µM] | Number of MDA-MB-231 secondary mammospheres [1] | Size (μm) of MDA-MB-231 secondary mammospheres [1] [μm] | propensity to form secondary mammospheres [1] | IC50 (MDA-MB-231 mammospheres [2]; 72 h) [µM] | body weight of LM3 tumor-bearing mice [3] | IC50 (MCF-7; 72 h, MTT) [µM] | dispersion of cells into collagen after 4 hr (MDA-MB-231 mammospheres [4]) | dispersion of cells into collagen after 28 hr / entire incubation period (MDA-MB-231 mammospheres [4]) | Number of MDA-MB-231 mammospheres (MDA-MB-231 mammospheres [5]) | Size (μm) of MDA-MB-231 mammospheres (MDA-MB-231 mammospheres [5]) [μm] | decrease in number of MDA-MB-231 mammospheres (MDA-MB-231 mammospheres [5]) [%] | decrease in size of MDA-MB-231 mammospheres (MDA-MB-231 mammospheres [5]) [%] | Number of MCF-7 mammospheres (MCF-7 mammospheres) | Size (μm) of MCF-7 mammospheres (MCF-7 mammospheres) [μm] | IC50 (MDA-MB-231 mammospheres [6]) [µM] | decrease in number of MCF-7 mammospheres (MCF-7 mammospheres; versus control) [%] | body weight / toxicity in MDA-MB-231 tumor-bearing mice [8] | further results |
| --- | --- | --- | --- | --- | --- | --- | --- | --- | --- | --- | --- | --- | --- | --- | --- | --- | --- | --- | --- | --- |
| CC(C)c1cc(C(C)C)cc(C(C)C)c1.COc1ccc([N+]2=Cc3ccc4ccccc4[n+]3[Ru-]2[Cl])cc1.[Cl-] [Ru^TEN1, [(η6-1,3,5-triisopropybenzene)RuCl(4-methoxy-N-(2-quinolinyl-methylene)-aniline)]Cl] | 1.2 ± 0.1 | 0.28 ± 0.1 | 102 ± 28 | 69 ± 3 | drastically reduced propensity to form secondary mammospheres | 1.4 ± 0.1 | neither Ru^TEN1 nor Ru^TEN3 had caused lost in body weight | 0.68 ± 0.23 | did not exhibit significant dispersion | only slight dispersion | 103 ± 41 | 93 ± 29 | 20 | 18 | 238 ± 86 | 130 ± 15 | 2.2 | – | – | – |
| CC[C@@H](C(=O)[C@@H](C)[C@@H](O)[C@H](C)[C@@H]1O[C@@H]([C@@H](CC)C(=O)O)CC[C@@H]1C)[C@H]1O[C@]2(C=C[C@@H](O)[C@]3(CC[C@@](C)([C@H]4CC[C@](O)(CC)[C@H](C)O4)O3)O2)[C@H](C)C[C@@H]1C [Saliomycin, salinomycin] | – | – | 224 ± 74 | 82 ± 8 | only slight changes in size and number of mammospheres | – | – | – | did not exhibit significant dispersion | only slight dispersion | 87 ± 28 | 84 ± 25 | 30 | 30 | 176 ± 73 | 117 ± 21 | – | 33 | low toxicity | reduction of ALDHbright sub-population [7]: 89%; IC50 (MDA-MB-231; Homo sapiens, MDA-MB-231, 24 h, read-out: IC50 (μM) MDA-MB-231 24 h): 31 ± 4 µM; IC50 (MDA-MB-231; Homo sapiens, MDA-MB-231, 72 h, read-out: IC50 (μM) MDA-MB-231 72 h): 0.56 ± 0.09 µM; IC50 (MDA-MB-231 mammospheres [2]; Homo sapiens, MDA-MB-231, 72 h): 8.3 ± 2.4 µM; IC50 (MCF-7; Homo sapiens, MCF7, 72 h): 0.51 ± 0.03 µM; decrease in size of MCF-7 mammospheres (MCF-7 mammospheres; versus control): 9% |
| [(η6-1,3,5-triisopropybenzene)RuCl(3-chloro-N-(2-quinolinylmethylene)-aniline)]Cl [Ru^TEN3] | 4.5 ± 0.8 | 1.5 ± 0.3 | 81 ± 9 | 67 ± 4 | drastically reduced propensity to form secondary mammospheres | 1.7 ± 0.3 | neither Ru^TEN1 nor Ru^TEN3 had caused lost in body weight | 4.4 ± 0.4 | – | did not migrate from the spheroids | 50 ± 21 | 76 ± 19 | 35 | 60 | 183 ± 32 | 122 ± 16 | 2.7 | 30 | low toxicity | Ru accumulation in tissues [9]: highest Ru accumulation was observed in spleen and liver, followed by kidney and colon; Ru content in the brain [9]: very low; body weight and condition ([10]; 5 μmol/kg intraperitoneally twice a week for 33 days): did not demonstrate any weight loss; body weight and condition ([10]; 10 μmol/kg intraperitoneally twice a week for 33 days): did not demonstrate any weight loss; body weight and condition ([10]; 20 μmol/kg intraperitoneally twice a week): experienced severe pain, stopped moving, thus were euthanized |
